Assay results reported in the supplement of paper PMC10331698.
± gives the standard deviation of the averaged measurements.

What was measured:
Test in all cases: level (log10 ratio to DMSO vehicle control); higher = higher biomarker level / cell amount than vehicle control
Conditions in all cases: in DMSO
[1] = compound: C=C(C)C(=O)OCCC(F)(F)C(F)(F)C(F)(F)C(F)(F)C(F)(F)C(F)(F)F [6:2 Fluorotelomer methacrylate]
Protocol: (§1)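 BioMAP Diversity Plus panel of 12 human primary cell co-culture systems (3C, 4H, LPS, SAg, BT, BF4T, BE3C, CASM3C, HDF3CGF, KF3CT, MyoF, Mphg). Compounds were added 1 h before stimulation and left for 24 h (MyoF 48 h; BT 72 h for soluble read-outs or 6 d for IgG). Biomarkers were read by ELISA, cytotoxicity by SRB, PBMC viability and proliferation by Alamar Blue. Each well value was divided by the mean of 8 DMSO control wells on the same plate and log10 transformed; duplicate blinded samples were tested at 4 concentrations.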

[2] = compound: COC(=O)C(F)(F)C(F)(F)OC(F)(C(F)(F)F)C(F)(F)OC(F)=C(F)F [Methyl perfluoro(3-(1-ethenyloxypropan-2-yloxy)propanoate)]
Protocol: as §1

Heptafluorobutyl iodide = compound: FC(F)(F)C(F)(F)C(F)(F)CI [Heptafluorobutyl iodide]
Protocol: as §1

[3] = compound: FC(F)(F)C(F)(F)CNCC(F)(F)C(F)(F)F [Bis(1H,1H-perfluoropropyl)amine]
Protocol: as §1

[4] = compound: NC(=O)C(F)(F)C(F)(F)C(F)(F)C(F)F
Protocol: as §1

[5] = compound: NS(=O)(=O)C(F)(F)C(F)(F)C(F)(F)C(F)(F)C(F)(F)C(F)(F)F [Perfluorohexanesulfonamide]
Protocol: as §1

[6] = compound: O=C(O)C(F)(F)C(F)(F)C(F)(F)C(F)(F)C(F)(F)C(F)(F)C(F)(F)C(F)(F)C(F)(F)C(F)F [11-H-Perfluoroundecanoic acid]
Protocol: as §1

Test System	level (log10) ([1]; 6700 nM)	level (log10) ([1]; 20000 nM)	level (log10) ([1]; 60000 nM)	level (log10) ([2]; 6700 nM)	level (log10) ([2]; 20000 nM)	level (log10) (Heptafluorobutyl iodide; 6700 nM)	level (log10) (Heptafluorobutyl iodide; 20000 nM)	level (log10) (Heptafluorobutyl iodide; 60000 nM)	level (log10) ([3]; 6700 nM)	level (log10) ([3]; 20000 nM)	level (log10) ([3]; 60000 nM)	level (log10) ([4]; 6700 nM)	level (log10) ([4]; 20000 nM)	level (log10) ([4]; 60000 nM)	level (log10) ([5]; 6700 nM)	level (log10) ([5]; 20000 nM)	level (log10) ([5]; 60000 nM)	level (log10) ([6]; 6700 nM)	level (log10) ([6]; 20000 nM)
KF3CT:MMP-9	-0.0275 ± 0.056	-0.0145 ± 0.03	-0.009 ± 0.0042	-0.0375 ± 0.0021	-0.054 ± 0.0071	-0.0195 ± 0.035	-0.0185 ± 0.033	-0.005 ± 0.021	-0.024 ± 0.0071	-0.013 ± 0.035	0.001 ± 0.042	-0.0095 ± 0.013	0.002 ± 0.025	0.0125 ± 0.023	-0.015 ± 0.02	-0.039 ± 0.03	-0.093 ± 0.021	-0.0735 ± 0.011	-0.298 ± 0.0071
KF3CT:PAI-I	-0.0465 ± 0.018	-0.035 ± 0.016	-0.0535 ± 0.03	0.0045 ± 0.019	-0.0045 ± 0.012	0.0005 ± 0.0035	-0.0185 ± 0.016	-0.008 ± 0.0071	-0.008 ± 0.03	-0.0005 ± 0.005	0 ± 0.0042	-0.005 ± 0.0042	-0.0085 ± 0.0064	-0.007 ± 0.02	0.0045 ± 0.016	0.0035 ± 0.021	-0.0285 ± 0.022	-0.0025 ± 0.03	-0.12 ± 0.044
KF3CT:SRB	-0.005 ± 0.0085	0	-0.001 ± 0.0057	0.005 ± 0.013	0.0125 ± 0.0078	-0.002 ± 0.0028	0 ± 0.0042	0.001 ± 0.016	-0.007 ± 0.0057	-0.007 ± 0.0014	0.0095 ± 0.011	-0.006 ± 0.0028	-0.0005 ± 0.0064	-0.002 ± 0.013	0 ± 0.0099	-0.008 ± 0.0028	-0.014 ± 0.0042	-0.01 ± 0.017	-0.012 ± 0.0014
KF3CT:TIMP-2	-0.0445 ± 0.0064	0.008 ± 0.013	0.022 ± 0.038	0.0105 ± 0.018	0.0265 ± 0.0092	-0.023 ± 0.018	0.0135 ± 0.00071	-0.0125 ± 0.015	0.001 ± 0.017	-0.024 ± 0.014	0.016 ± 0.054	-0.006 ± 0.0057	-0.005 ± 0.013	0.0015 ± 0.019	-0.01 ± 0.02	-0.0115 ± 0.0064	0.008 ± 0.0057	-0.001 ± 0.0071	-0.012 ± 0.0071
LPS:CD40	-0.022 ± 0.045	-0.04 ± 0.024	-0.0335 ± 0.11	0.0235 ± 0.035	-0.0365 ± 0.022	-0.045 ± 0.018	-0.0035 ± 0.013	0.001 ± 0.0057	0.041 ± 0.041	-0.0115 ± 0.047	-0.0155 ± 0.025	-0.0125 ± 0.029	-0.0045 ± 0.018	-0.03 ± 0.017	0.005 ± 0.068	-0.045 ± 0.09	-0.191 ± 0.04	-0.0115 ± 0.015	-0.0505 ± 0.03
LPS:CD62E/E-Selectin	0.0095 ± 0.018	0.003 ± 0.018	0.0335 ± 0.0064	-0.0165 ± 0.0035	-0.0085 ± 0.00071	0.005 ± 0.1	-0.013 ± 0.0028	0.026 ± 0.068	0.0005 ± 0.032	-0.012 ± 0.0057	0.0125 ± 0.00071	-0.0115 ± 0.022	-0.023 ± 0.0014	-0.016 ± 0.016	-0.002 ± 0.0099	-0.0295 ± 0.012	-0.0815 ± 0.011	0.0035 ± 0.019	0.0095 ± 0.025
LPS:CD69	-0.0355 ± 0.019	-0.0095 ± 0.026	0.0175 ± 0.053	-0.0435 ± 0.0078	-0.053 ± 0.013	-0.0635 ± 0.011	-0.054 ± 0.013	-0.021 ± 0.048	0.016 ± 0.028	0.0075 ± 0.053	0.03 ± 0.09	0.006 ± 0.027	0.021 ± 0.035	0.0225 ± 0.061	-0.009 ± 0.013	-0.061 ± 0.016	-0.169 ± 0.005	-0.024	-0.057
LPS:CD106/VCAM-1	0.0165 ± 0.0092	-0.0025 ± 0.021	0.0055 ± 0.018	-0.066 ± 0.013	-0.0805 ± 0.0064	-0.0355 ± 0.0092	-0.001 ± 0.018	-0.0485 ± 0.054	-0.005 ± 0.0057	0.001 ± 0.021	0.0065 ± 0.0064	-0.0055 ± 0.025	-0.023 ± 0.041	-0.015 ± 0.025	-0.029 ± 0.047	-0.0315 ± 0.049	-0.097 ± 0.016	0.0025 ± 0.019	-0.002 ± 0.02
